In test [1] the test system is Rac1, p47phox in BMDMs and THP-1 cells. The experiment in a line: Rac1 membrane translocation and p47phox phosphorylation. The class given is cell-based. The procedure:
Total cells were lysed on ice for 30 minutes in RIPA buffer composed of 50 mM Tris-HCl (pH 7.4), 150 mM NaCl, 2 mM EDTA, 1% NP-40, 0.5% sodium deoxycholate, 0.1% SDS, 1 mM phenylmethylsulfonyl fluoride (PMSF), 10 mM sodium fluoride, 2 mM sodium pyrophosphate, 10 mM β-glycerophosphate, 10 mM sodium orthovanadate. Membrane-and-cytoplasmic protein fractions of cultured cells were obtained with Mem-PER Plus Membrane Protein Extraction Kit (Thermo Scientific, MA, USA) according to the manufacturer's instructions. The lysates were centrifuged at 13,000 rpm for 20 minutes at 4° C. and protein concentrations were determined using the Bradford assay (Bio-Rad Laboratories). Denatured samples were mixed with a 5×SDS-PAGE loading buffer and heated to 100° C. for 15 min. The samples were separated on the 10% of SDS-PAGE gel and transferred to polyvinylidene difluoride (PVDF) membranes (Merck Millipore Corporation, MA, USA). Membranes were blocked with 5% non-fat milk in PBS (10 mM Tris-HCl, pH7.5, 150 mM NaCl) for 1 h and probed with primary antibodies against ERK1/2, phospho-ERK1/2, P38, phospho-P38, SAPK/JNK, phospho-SAPK/JNK, Na, K-ATPase, α-Tubulin, and β-actin from Cell Signaling Technology (MA, USA), Rac1 from Merck Millipore Corporation), p47phox and phospho-p47phox from Invitrogen, adenosine receptor A1 from Abcam, β arrestin-1 from Santa Cruz Technology for overnight at 4° C. […]

Test [2] deals with gemcitabine-induced neutrophil extravasation. The experiment in a line: Gemcitabine-induced neutropenia mice model. Format: in vivo. The method, then:
Male BALB/c mice were randomly divided into 3 groups; normal control group (n=5), gemcitabine only group (n=5) and gemcitabine with PLAG group (n=5). The mice were intraperitoneally (i.p.) injected with 50 mg/kg gemcitabine to induce neutropenia. PLAG was diluted with phosphate-buffered saline (PBS) and then orally administrated at a dose of 50 or 250 mg/kg/day. The normal control group was administered PBS only during the experiment. The whole blood was collected from the orbital sinuses using capillary tubes (Kimble Chase Life Science and Research Products LLC, FL, USA) and collection tubes containing K3E-K3EDTA (Greiner Bio-One International, Germany). To obtain peritoneal cells, 5 ml of cold PBS was injected to the left side of the peritoneal wall using a 5 mL syringe, and the fluid was aspirated from the peritoneum. The collected cells were counted by complete blood count (CBC) analysis using Mindray BC-5300 auto-hematology analyzer (Shenzhen Mindray Biomedical Electronics, China). To establish a 4T1 tumor-bearing mice model, the murine 4T1 mammary carcinoma cells (1×10^5) were subcutaneously injected on the right side of the abdomen. On the 10th day after tumor injection, the mice were intraperitoneally (i.p.) injected with 50 mg/kg gemcitabine, and the next day the whole blood was collected from the orbital sinuses as mentioned above before sacrificing the animals to obtain different organs of the body for RT-PCR.
PLAG inhibits gemcitabine-induced neutrophil extravasation into the peritoneum by down-regulating the expression of adhesion molecules in normal BALB/c mice. Male BALB/c mice of 8-10 weeks of age were orally administrated with 50 or 250 mg/kg of PLAG and then were intraperitoneally injected with 50 mg/kg gemcitabine. After 24 h, blood samples were collected by retro-orbital bleeding, and the number of blood neutrophils was determined by CBC analysis. Each group contains five mice. The population of blood neutrophils was analyzed by flow cytometry. Red cell-lysed whole blood was stained with FITC-conjugated anti-Ly6G and PE-Cy7-conjugated anti-CD11b antibodies to determine the circulating neutrophil population. Ly6G+/CD11b+ cells were further stained with APC-conjugated anti-L-selectin and APC-conjugated anti-LFA-1 antibodies and were analyzed by flow cytometry to determine the expression of adhesion molecules.
The mice were intraperitoneally (i.p.) injected with 50 mg/kg gemcitabine to induce neutropenia. PLAG was diluted with phosphate-buffered saline (PBS) and then orally administrated at a dose of 50 or 250 mg/kg/day. The normal control group was administered PBS only during the experiment. At 15 h after gemcitabine treatment, the whole blood was collected from the orbital sinuses using capillary tubes (Kimble Chase Life Science and Research Products LLC, FL, USA) and collection tubes containing K3E-K3EDTA (Greiner Bio-One International, Kremsmünster, Austria). To obtain peritoneal cells, 5 ml of cold PBS was injected to the left side of the peritoneal wall using a 5 mL syringe, and the fluid was aspirated from the peritoneum. The collected cells were counted by complete blood count (CBC) analysis using Mindray BC-5300 auto-hematology analyzer (Shenzhen Mindray Biomedical Electronics, Guangdong Sheng, China).
To establish a 4T1 tumor-bearing mice model, the murine 4T1 mammary carcinoma cells (1×105) were subcutaneously injected on the right side of the abdomen. On the 10th day after tumor injection, the mice were intraperitoneally (i.p.) injected with 50 mg/kg gemcitabine, and the next day the whole blood was collected from the orbital sinuses as mentioned above before sacrificing the animals to obtain different organs of the body.

Results on one compound are retold here after patent publication US20220339135A1, “COMPOSITIONS AND METHODS FOR MODULATING AN INFLAMMATORY RESPONSE” (Enzychem Lifesciences Corporation, priority 2019, published 2022).

Turning to `CCCCC/C=C\C/C=C\CCCCCCCC(=O)OC(COC(C)=O)COC(=O)CCCCCCCCCCCCCCC` (racemic) [PLAG, 1-palmitoyl-2-linoleoyl-3-acetylglycerol], in test [1] (dose-dependent), the “gemcitabine-induced p47phox phosphorylation” value was “effectively inhibited”. In addition, in test [1] (gemcitabine-stimulated THP-1 cells), the “translocation of Rac1 from the cytosol to the membrane” value is “significantly inhibited”. The “neutrophil counts in the peritoneum” value in test [2] (15 hours after gemcitabine) is recorded as “effectively decreases”. For the same compound, in test [2] (Gr-1+/CD11b+ cells), the “gemcitabine-induced cell surface expression of L-selectin and LFA-1” value is on record as “effectively inhibited”. In test [2] (PLAG 50 and 250 mg/kg oral, 15 hours after gemcitabine, dose-dependent), the circulating neutrophil counts entry is “restored circulating neutrophils to an almost normal range”. Moreover, in test [2] (gemcitabine 50 mg/kg i.p.), the “population of Gr-1+ and CD11b+ neutrophils in the blood” value is “maintained”.
